≈ marks a conversion by molar mass, not a printed value. Calls of active or inactive are those of the source. No cut-off for these calls is given here.
Legend:
[1] = molecular target: T1, Basic phospholipase A2 VRV-PL-VIIIa (Daboia russelii) (UniProt P59071); experiment: (§1) Inhibition of Vipera russelii venom sPLA2 using DMPC as substrate preincubated for 2 mins followed by substrate addition measured after 30 mins
T1 sequence (whole entry): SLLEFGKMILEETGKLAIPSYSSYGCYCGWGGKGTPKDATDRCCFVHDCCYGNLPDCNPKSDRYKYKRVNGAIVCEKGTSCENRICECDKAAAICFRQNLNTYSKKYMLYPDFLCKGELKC

[2] = molecular target: T2, Basic phospholipase A2 VRV-PL-VIIIa (Daboia russelii, UniProt P59071); experiment: as §1
T2 sequence (P59071 whole entry): T1 sequence (whole entry)

Staphylococcus aureus = experiment: Antibacterial activity against Staphylococcus aureus MTCC 737 after 24 hrs by serial dilution method; type: functional; conditions: MTCC 737, 24 h
Escherichia coli = experiment: Antibacterial activity against Escherichia coli MTCC 1687 after 24 hrs by serial dilution method; type: functional; conditions: MTCC 1687, 24 h
Bacillus subtilis = experiment: Antibacterial activity against Bacillus subtilis MTCC 441 after 24 hrs by serial dilution method; type: functional; conditions: MTCC 441, 24 h
Aspergillus niger = experiment: Antifungal activity against Aspergillus niger after 72 hrs by serial dilution method; type: functional
Aspergillus flavus = experiment: Antifungal activity against Aspergillus flavus after 72 hrs by serial dilution method; type: functional
Candida albicans = experiment: Antifungal activity against Candida albicans MTCC 227 after 72 hrs by serial dilution method; type: functional
[3] = molecular target: T1, Basic phospholipase A2 VRV-PL-VIIIa (Daboia russelii); experiment: Inhibition of Vipera russelii venom sPLA2 using DMPC as substrate at 10.214 uM preincubated for 2 mins followed by substrate addition measured after 30 mins in presence of 1 to 12 mM CaCl2
[4] = molecular target: T1, Basic phospholipase A2 VRV-PL-VIIIa (Daboia russelii); experiment: Inhibition of Vipera russelii venom sPLA2 using DMPC as substrate at 11.930 uM preincubated for 2 mins followed by substrate addition measured after 30 mins in presence of 1 to 12 mM CaCl2
[5] = molecular target: T1, Basic phospholipase A2 VRV-PL-VIIIa (Daboia russelii); experiment: Inhibition of Vipera russelii venom sPLA2 using DMPC as substrate at 11.102 uM preincubated for 2 mins followed by substrate addition measured after 30 mins in presence of 1 to 12 mM CaCl2

Row | Compound | inhibition [1] | IC50 [2] [µM] | MIC90 (Staphylococcus aureus) [µg/mL] | MIC90 (Escherichia coli) [µg/mL] | MIC90 (Bacillus subtilis) [µg/mL] | MIC90 (Aspergillus niger) [µg/mL] | MIC90 (Aspergillus flavus) [µg/mL] | MIC90 (Candida albicans; MTCC 227, 72 h) [µg/mL] | MIC90 (Candida albicans) [µg/mL] | inhibition [3] | inhibition [4] | inhibition [5]
1 | Clc1cccc(N2N=C(c3ccccc3)CC2c2cccc(Cl)c2Cl)c1 (stereo unspecified) | Dose-dependent effect | 19.3 | 20 (≈ 49.8 µM) | 20 (≈ 49.8 µM) | 120 (≈ 299 µM) | 20 (≈ 49.8 µM) | 125 (≈ 311 µM) | 15 (≈ 37.3 µM) |  |  |  | 
2 | O=C(O)c1cn(C2CC2)c2cc(N3CCNCC3)c(F)cc2c1=O [CIPROFLOXACIN] |  |  | 20 (≈ 60.4 µM) | 20 (≈ 60.4 µM) | 40 (≈ 121 µM) |  |  |  |  |  |  | 
3 | COc1ccccc1C1=NN(c2cccc(Cl)c2)C(c2cccc(Cl)c2Cl)C1 (stereo unspecified) | Dose-dependent effect | 35.1 | 40 (≈ 92.6 µM) | 40 (≈ 92.6 µM) | 140 (≈ 324 µM) | 50 (≈ 116 µM) | 130 (≈ 301 µM) | 40 (≈ 92.6 µM) |  |  |  | 
4 | Clc1cccc(C2CC(c3ccc4c(c3)OCO4)=NN2c2ccccc2)c1Cl (stereo unspecified) | Dose-dependent effect | 48.2 | 130 (≈ 316 µM) | 140 (≈ 340 µM) | 140 (≈ 340 µM) | 130 (≈ 316 µM) | 130 (≈ 316 µM) | 120 (≈ 292 µM) |  |  |  | 
5 | Fc1ccc(C2=NN(c3cccc(Cl)c3)C(c3cccc(Cl)c3Cl)C2)cc1 (stereo unspecified) | Dose-dependent effect | 19.2 | 40 (≈ 95.3 µM) | 25 (≈ 59.6 µM) | 120 (≈ 286 µM) | 30 (≈ 71.5 µM) | 130 (≈ 310 µM) | 50 (≈ 119 µM) |  |  |  | 
6 | COc1cccc(C2=NN(c3cccc(Cl)c3)C(c3cccc(Cl)c3Cl)C2)c1 (stereo unspecified) | Dose-dependent effect | 30.1 | 50 (≈ 116 µM) | 30 (≈ 69.5 µM) | 125 (≈ 290 µM) | 60 (≈ 139 µM) | 130 (≈ 301 µM) | 50 (≈ 116 µM) |  |  |  | 
7 | COc1ccccc1C1=NN(c2ccccc2)C(c2cccc(Cl)c2Cl)C1 (stereo unspecified) | Dose-dependent effect | 30.3 | 40 (≈ 101 µM) | 50 (≈ 126 µM) | 125 (≈ 315 µM) | 40 (≈ 101 µM) | 125 (≈ 315 µM) | 30 (≈ 75.5 µM) |  |  |  | 
8 | NYSTATIN |  |  |  |  |  | 25 | 25 |  | 20 |  |  | 
9 | Clc1ccc(C2=NN(c3cccc(Cl)c3)C(c3cccc(Cl)c3Cl)C2)cc1 (stereo unspecified) | Dose-dependent effect | 14.6 | 10 (≈ 22.9 µM) | 15 (≈ 34.4 µM) | 100 (≈ 229 µM) | 15 (≈ 34.4 µM) | 110 (≈ 252 µM) | 15 (≈ 34.4 µM) |  |  |  | 
10 | Clc1ccc(C2=NN(c3ccccc3)C(c3cccc(Cl)c3Cl)C2)cc1 (stereo unspecified) | Dose-dependent effect | 10.2 | 15 (≈ 37.3 µM) | 20 (≈ 49.8 µM) | 125 (≈ 311 µM) | 25 (≈ 62.2 µM) | 120 (≈ 299 µM) | 15 (≈ 37.3 µM) |  | Active |  | 
11 | Clc1cccc(C2CC(c3ccccc3)=NN2c2ccccc2)c1Cl (stereo unspecified) | Dose-dependent effect | 12 | 50 (≈ 136 µM) | 75 (≈ 204 µM) | 125 (≈ 340 µM) | 30 (≈ 81.7 µM) | 110 (≈ 299 µM) | 25 (≈ 68.1 µM) |  |  |  | 
12 | COc1ccc(C2=NN(c3ccccc3)C(c3cccc(Cl)c3Cl)C2)cc1 (stereo unspecified) | Dose-dependent effect | 11.9 | 40 (≈ 101 µM) | 40 (≈ 101 µM) | 140 (≈ 352 µM) | 50 (≈ 126 µM) | 125 (≈ 315 µM) | 30 (≈ 75.5 µM) |  |  | Active | 
13 | Fc1ccc(C2=NN(c3ccccc3)C(c3cccc(Cl)c3Cl)C2)cc1 (stereo unspecified) | Dose-dependent effect | 11.1 | 40 (≈ 104 µM) | 25 (≈ 64.9 µM) | 125 (≈ 324 µM) | 30 (≈ 77.9 µM) | 120 (≈ 311 µM) | 50 (≈ 130 µM) |  |  |  | Active
14 | Clc1cccc(N2N=C(c3ccc4c(c3)OCO4)CC2c2cccc(Cl)c2Cl)c1 (stereo unspecified) | Dose-dependent effect | 49.8 | 120 (≈ 269 µM) | 130 (≈ 292 µM) | 140 (≈ 314 µM) | 120 (≈ 269 µM) | 120 (≈ 269 µM) | 130 (≈ 292 µM) |  |  |  | 
15 | COc1cccc(C2=NN(c3ccccc3)C(c3cccc(Cl)c3Cl)C2)c1 (stereo unspecified) | Dose-dependent effect | 29.8 | 50 (≈ 126 µM) | 50 (≈ 126 µM) | 130 (≈ 327 µM) | 40 (≈ 101 µM) | 120 (≈ 302 µM) | 40 (≈ 101 µM) |  |  |  | 
16 | Cc1ccc(C2=NN(c3ccccc3)C(c3cccc(Cl)c3Cl)C2)cc1 (stereo unspecified) | Dose-dependent effect | 21.7 | 60 (≈ 157 µM) | 60 (≈ 157 µM) | 120 (≈ 315 µM) | 75 (≈ 197 µM) | 120 (≈ 315 µM) | 60 (≈ 157 µM) |  |  |  | 

Reference: ChEMBL document CHEMBL4052734, “Synthesis of novel 2-pyrazoline analogues with potent anti-inflammatory effect mediated by inhibition of phospholipase A2: Crystallographic, in silico docking and QSAR analysis” (Bioorg Med Chem Lett, 2017)
